Data reported in patent US4663321A, “Triazolobenzodiazepines and pharmaceutical use” (Merck & Co., Inc., priority 1985, dated 1987).
Like-named read-outs stand apart in the source and are kept apart here. Square brackets hold non-standard residues; d marks the D form. Peptide text beside a SMILES is read from it. * marks the point of attachment. sY = N[C@@H](Cc1ccc(OS(=O)(=O)O)cc1)C(=O)O; Cbz = O=C(OCc1ccccc1)*; Boc = CC(C)(C)OC(=O)*

How the values were obtained:
CCK receptor [1] = conditions: prior art CCK antagonists; cited from earlier work
CCK receptor [2] = molecular target: T1, CCK receptor (Cavia porcellus, UniProt H0VZC5); test: CCK receptor binding (brain), inhibition of 125I-CCK-33 binding; set-up: species or system guinea pig (Male Hartley); conditions: 125I-CCK-33, guinea pig cerebral cortex, 25° C., 2 hours
T1 construct: Cerebral cortex was dissected and used as a receptor source; from tissue; host or cells: guinea pig (Hartley) cerebral cortex membranes
Description: 2. CCK Receptor Binding (Brain)
CCK-33 was radiolabeled and the binding was performed according to the description for the pancreas method with modification according to Saito et al. (J. Neurochem. 37, 483-490, 1981).
Male Hartley guinea pigs (300-500 g) were sacrificed by decapitation and the brains were removed and placed in ice-cold 50 mM. Tris HCl plus 7.58 g/l Trizma-7.4 (pH 7.4 at 25° C.). Cerebral cortex was dissected and used as a receptor source. Each gram of fresh guinea pig brain tissue was homogenized in 10 ml of Tris Trizma buffer with a Brinkman polytron PT-10. The homogenates were centrifuged at 42,000 g for 15 min. […] All assays were run in duplicate or triplicate. The reaction mixtures were incubated at 25° C. for 2 hours and centrifuged in a Beckman Microfuge (4 minutes) immediately after adding 1 ml of ice-cold incubation buffer. The supernatant was aspirated and discarded, pellets were counted with a Beckman gamma 5000.

CCK receptor [3] = molecular target: T2, CCK receptor (Rattus norvegicus, UniProt P30551); test: CCK receptor binding (pancreas), inhibition of 125I-CCK-33 binding; set-up: species or system rat (Male Sprague-Dawley); conditions: for effect on the 125I-CCK receptor binding assay: protease inhibitor additives of the assay buffer
T2 construct: The whole pancreas was dissected free of fat tissue and was homogenized; from tissue; host or cells: rat (Sprague-Dawley) whole pancreas membranes
T2 sequence (P30551 1-444): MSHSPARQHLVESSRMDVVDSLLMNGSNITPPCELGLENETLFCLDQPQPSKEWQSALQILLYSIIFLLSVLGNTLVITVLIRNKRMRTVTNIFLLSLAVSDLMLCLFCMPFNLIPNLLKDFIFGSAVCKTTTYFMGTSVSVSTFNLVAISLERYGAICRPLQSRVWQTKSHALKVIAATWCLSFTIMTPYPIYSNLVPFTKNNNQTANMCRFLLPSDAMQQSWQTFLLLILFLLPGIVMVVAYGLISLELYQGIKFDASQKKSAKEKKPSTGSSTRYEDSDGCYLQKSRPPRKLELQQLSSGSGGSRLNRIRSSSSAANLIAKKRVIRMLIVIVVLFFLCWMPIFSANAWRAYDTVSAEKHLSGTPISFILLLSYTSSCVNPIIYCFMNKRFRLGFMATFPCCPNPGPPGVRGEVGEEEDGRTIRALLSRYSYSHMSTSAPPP
Description: 1. CCK receptor binding (pancreas)
CCK-33 was radiolabeled with ^125 I-Bolton Hunter reagent (2000 Ci/mmole) as described by Sankara et al. (J. Biol. Chem. 254: 9349-9351, 1979). Receptor binding was performed according to Innis and Snyder (Proc. Natl. Acad. Sci. 77: 6917-6921, 1980) with the minor modification of adding the additional protease inhibitors, phenylmethane sulfonyl fluoride and o-phenanthroline. The latter two compounds have no effect on the ^125 I-CCK receptor binding assay.
Male Sprague-Dawley rats (200-350 g) were sacrificed by decapitation. The whole pancreas was dissected free of fat tissue and was homogenized in 20 volumes of ice-cold 50 mM. Tris HCl (pH 7.7 at 25° C.) with a Brinkmann Polytron PT 10. The homogenates were centrifuged at 48,000 g for 10 min. Pellets were resuspended in Tris Buffer, centrifuged as above and resuspended in 200 volumes of binding assay buffer (50 mM Tris HCl, pH 7.7 at 25° C., 5 mM dithiothrietol, 0.1 mM bacitracin, 1.2 mM phenylmethane sulfonyl fluoride and 0.5 mM o-phenanthroline). […] All assays were run in duplicate or triplicate. The reaction mixtures were incubated at 37° C. for 30 minutes and centrifuged in a Beckman Microfuge (4 minutes) immediately after adding 1 ml of ice-cold incubation buffer. The supernatant was aspirated and discarded, pellets were counted with a Beckman gamma 5000. For Scatchard analysis (Ann. N.Y. Acad. Sci. 51: 660, 1949), ^125 I-CCK-33 was progressively diluted with increasing concentrations of CCK-33.

gastrin receptor = conditions: cited from earlier work
[4] = 125I-CCK-33, rat pancreas membranes, 37° C., 30 minutes, read-out: IC50 125I-CCK Pancreas
[5] = read-out: IC50 125I-CCK Pancreas

T1 sequence (H0VZC5 entry or part of it): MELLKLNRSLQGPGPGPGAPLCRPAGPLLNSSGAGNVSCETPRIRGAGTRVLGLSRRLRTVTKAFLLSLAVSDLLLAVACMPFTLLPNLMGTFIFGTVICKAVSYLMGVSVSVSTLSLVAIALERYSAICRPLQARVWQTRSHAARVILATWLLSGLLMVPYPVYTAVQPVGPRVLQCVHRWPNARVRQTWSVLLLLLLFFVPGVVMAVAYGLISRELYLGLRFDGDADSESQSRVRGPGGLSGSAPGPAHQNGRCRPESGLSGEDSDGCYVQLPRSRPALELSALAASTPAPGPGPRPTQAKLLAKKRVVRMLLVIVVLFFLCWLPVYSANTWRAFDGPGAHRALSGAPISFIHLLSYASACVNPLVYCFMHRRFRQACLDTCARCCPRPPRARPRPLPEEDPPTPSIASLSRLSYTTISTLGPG

Row | SMILES | IC50 (CCK receptor [2]) [µM] | IC50 (CCK receptor [3]; [4]) [µM] | other results
1 | CSCC[C@H](NC(=O)[C@H](Cc1ccc(OS(=O)(=O)O)cc1)NC(=O)OCc1ccccc1)C(=O)NCC(=O)N[C@@H](Cc1c[nH]c2ccccc12)C(=O)N[C@@H](CCSC)C(=O)N[C@@H](CC(=O)O)C(N)=O [Cbz-Tyr(SO3 H)-Met-Gly-Trp-Met-Asp-NH2] (Cbz-[sY]MGWMD-NH2) | – | – | CCK antagonist activity (CCK receptor [1]): can function as CCK antagonists
2 | O=c1[nH]nc2n1-c1ccccc1C(c1ccccc1F)=N[C@@H]2Cc1c[nH]c2ccccc12 [Compound 5, 2,4-Dihydro-3(R)-(3'-indolyl)methyl-6-(2-fluorophenyl)-1H-S-triazolo-[4,3-a]-1,4-benzodiazepin-1-one solvate] | 63 | – | IC50 (CCK receptor [3]): 3.1 µM
3 | O=C(NC1N=C(c2ccccc2F)c2ccccc2-n2cnnc21)c1ccc(Cl)cc1 (stereo not drawn) [Compound 8, 6-(2-Fluorophenyl)-4-(4-chlorophenyl)carbonylamino-4H-s-triazolo[4,3-a]-1,4-benzodiazepine] | 9.3 | 0.0044 | –
4 | CCCN(CCC)C(=O)C(CCC(=O)O)NC(=O)c1ccccc1 (stereo not drawn) [proglumide] | – | – | in vitro gastrin antagonism (gastrin receptor): Very weak in vitro antagonists
5 | O=C(NC1N=C(c2ccccc2F)c2ccccc2-n2cnnc21)c1cc2ccccc2[nH]1 (stereo not drawn) [Compound 9, 6-(2-Fluorophenyl)-4-(indol-2-yl)carbonylamino-4H-s-triazolo[4,3-a]-1,4-benzodiazepine] | 0.053 | 0.0009 | –
6 | O=C(NC1N=C(c2ccccc2F)c2ccccc2-n2cnnc21)OCc1ccccc1 (stereo not drawn) [Compound 7, 6-(2-Fluorophenyl)-4-benzyloxycarbonylamino-4H-s-triazolo[4,3-a]-1,4-benzodiazepine] | 8 | – | IC50 (CCK receptor [3]; [5]): 0.22 µM
7 | CCCC(=O)Nc1nc2c(ncn2[C@@H]2O[C@@H]3COP(=O)(O)O[C@H]3[C@H]2OC(=O)CCC)c(=O)[nH]1 [dibutyryl cyclic GMP] | – | – | CCK antagonist activity (CCK receptor [1]): most potent
8 | CSCC[C@H](NC(=O)OC(C)(C)C)C(=O)N[C@@H](CC(=O)O)C(=O)N[C@@H](Cc1ccccc1)C(N)=O [Boc-Met-Asp-Phe-NH2] (Boc-Met-Asp-Phe-NH2) | – | – | CCK antagonist activity (CCK receptor [1]): can function as CCK antagonists
9 | Cc1nnc2n1-c1ccccc1C(c1ccccc1F)=NC2NC(=O)c1cc2ccccc2[nH]1 (stereo not drawn) [Compound 10, 6-(2-Fluorophenyl)-4-(indol-2-yl)carbonylamino-1-methyl-4H-s-triazolo[4,3-a]-1,4-benzodiazepine] | 0.066 | 0.0004 | –
10 | Fc1ccccc1C1=N[C@H](Cc2c[nH]c3ccccc23)c2nnc(-c3ccccc3)n2-c2ccccc21 [Compound 3, 6-(2-Fluorophenyl)-4(R)-4-(3'-indolyl)methyl-1-phenyl-4H-s-triazolo[4,3-a]-1,4-benzodiazepine] | – | – | IC50 (CCK receptor [3]; [5]): 22 µM
11 | c1cnc2c(c1)ccc1cccnc12 [o-phenanthroline, reference compound] | – | – | effect on the 125I-CCK receptor binding assay (CCK receptor [3]): no effect
12 | CN(C)Cc1nnc2n1-c1ccccc1C(c1ccccc1F)=N[C@@H]2Cc1c[nH]c2ccccc12 [Compound 4, 6-(2-Fluorophenyl)-4(R)-4-(3'-indolyl)methyl-1-dimethylaminomethyl-4H-s-triazolo[4,3-a]-1,4-benzodiazapine] | – | – | IC50 (CCK receptor [3]; [5]): 14 µM
13 | Fc1ccccc1C1=N[C@H](Cc2c[nH]c3ccccc23)c2nnc(C(Cl)(Cl)Cl)n2-c2ccccc21 [Compound 6, 1-Trichloromethyl-4(R)-(3'-indolyl)methyl-6-(2-fluorophenyl)-4H-S-triazolo[4,3-a]-1,4-benzodiazepine solvate] | > 100 | 25 | –
14 | O=S(=O)(F)Cc1ccccc1 [phenylmethane sulfonyl fluoride, reference compound] | – | – | effect on the 125I-CCK receptor binding assay (CCK receptor [3]): no effect
15 | Fc1ccccc1C1=N[C@H](Cc2c[nH]c3ccccc23)c2nncn2-c2ccccc21 [Compound 1, 6-(2-Fluorophenyl)-4(R)-4-(3'-indolyl)methyl-4H-s-triazolo[4,3-a]-1,4-benzodiazepine] | – | 0.2 | –
16 | CSCC[C@H](N)C(=O)N[C@@H](CC(=O)O)C(=O)N[C@@H](Cc1ccccc1)C(N)=O [Met-Asp-Phe-NH2] (H-Met-Asp-Phe-NH2) | – | – | CCK antagonist activity (CCK receptor [1]): can function as CCK antagonists
17 | Cc1nnc2n1-c1ccccc1C(c1ccccc1F)=N[C@@H]2Cc1c[nH]c2ccccc12 [Compound 2, 6-(2-Fluorophenyl)-4-(R)-4-(3'-indolyl)methyl-1-methyl-4H-s-triazolo[4,3-a]-1,4-benzodiazepine] | 38.6 | 0.3 | –
